We go through one compound from article PMC9306968, “A structural homologue of the plant receptor D14 mediates responses to strigolactones in the fungal phytopathogen Cryphonectria parasitica” (The New Phytologist, 2022).

For test [1], the target named is CpD14. Description: intrinsic tryptophan fluorescence titration; UPLC hydrolysis assay; denaturing ESI-MS covalent adduct. In kind it is binding, Cryphonectria parasitica. The text has this:
intrinsic tryptophan fluorescence titration; UPLC hydrolysis assay; denaturing ESI-MS covalent adduct on CpD14 | The interaction between (+)‐GR24 and CpD14 was confirmed using tryptophan intrinsic fluorescence assay

The target of test [2] is T1, RMS3/PsD14 (Lathyrus oleraceus, UniProt A0A109QYD3).
T1 sequence (A0A109QYD3 1-267): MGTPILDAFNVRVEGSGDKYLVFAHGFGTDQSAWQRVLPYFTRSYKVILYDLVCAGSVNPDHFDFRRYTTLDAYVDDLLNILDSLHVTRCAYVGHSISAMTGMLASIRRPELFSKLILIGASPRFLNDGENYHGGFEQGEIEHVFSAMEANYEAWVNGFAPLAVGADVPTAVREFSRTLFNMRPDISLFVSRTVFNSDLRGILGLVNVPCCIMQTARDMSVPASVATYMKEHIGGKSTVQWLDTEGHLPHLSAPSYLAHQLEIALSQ
The test can be described thus: intrinsic tryptophan fluorescence titration (also nanoDSF and UPLC hydrolysis assay). In kind it is binding. On the technique in general: DSF heats the sample and reads unfolding from a dye or from intrinsic fluorescence.

As for `CC1=C[C@H](O/C=C2/C(=O)O[C@@H]3c4ccccc4C[C@H]23)OC1=O` [(+)-GR24], the Kd (in general, the constant that tells how readily two partners part at equilibrium) turned out to be 203 ± 41.1 µM in test [1] and 9.33 ± 4.27 µM in test [2].
